Patent US20070166696A1, “Adenovirus-transfected primary cells and methods of pathway mapping” (SANOFI-AVENTIS U.S. LLC, priority 2003, published 2007)

How the values were obtained:
Type in all cases: cell-based, human
AP-1 cis-element [1] = assay: Adenovirus luciferase reporter in iDCs; conditions: LPS 1 μg/ml, 2, 4, 8, 24 hours time course
Description: (§1) After a certain amount of time post stimulation, the cells are collected and luciferase activity is measured. Luciferase activity can be measured by an enzyme assay using a photon generating substrate and detecting photons by luminometer.
(§2) Similar experiments were performed for in vitro differentiated dendritic cells (“iDCs”). In this example, iDCs are obtained as follows: First, peripheral blood mononuclear cells (“PBMCs”) are obtained by density gradient centrifugation. One density gradient centrifugation medium is FICOLL PAQUE, commercially available from Amersham Biosciences. Monocytes are then isolated from the PBMCs by magnetic depletion of non-monocytes. Finally, iDCs are isolated from the monocytes by treatment of the monocytes with ILA and GM-GSF for 6 days.
(§3) In this example, resting cultures of isolated iDCs are then infected with a recombinant adenovirus containing the luciferase gene which is transcribed under the control of a specific cis-element. In this example, three recombinant adenovirus constructs are used to infect three separate cultures of iDCs, each construct containing one of three cis-elements: AP-1, NFκB, and ISRE. The iDCs are infected at a MOI of 100 per cell. After 16 hours of incubation post infection, the iDCs are then either mock stimulated (“C”) or stimulated with lipopolysaccharide (“LPS”) at the concentration of 1 μg/ml. At 2 hours, 4 hours, 8 hours, and 24 hours post stimulation, cells are harvested and luciferase activity is measured by luminometer. FIG. 6B contains three charts depicting the time course of AP-1, NFκB, and ISRE stimulation, respectively. […] These charts also indicate different time courses of activation.

NFκB cis-element = assay: Adenovirus luciferase reporter in iDCs; conditions: LPS 1 μg/ml, 2, 4, 8, 24 hours time course
Description: as §1, §2, §3

ISRE cis-element = assay: Adenovirus luciferase reporter in iDCs; conditions: LPS 1 μg/ml, 2, 4, 8, 24 hours time course
Description: as §1, §2, §3

AP-1 cis-element [2] = assay: Adenovirus luciferase reporter in CD14+ plate-bound macrophages; conditions: LPS 1 μg/ml, 24 hours post stimulation
Description: as §1
(§4) Similar experiments were performed for CD14^+ plate-bound macrophages. In this example, macrophages are obtained as follows: First, peripheral blood mononuclear cells (“PBMCs”) are obtained by density gradient centrifugation. One density gradient centrifugation medium is FICOLL PAQUE, commercially available from Amersham Biosciences. Monocytes are then isolated from the PBMCs by magnetic depletion of non-monocytes. Finally, macrophages are isolated from the monocytes by attachment of the monocytes to a tissue culture plate in the absence of fetal bovine serum (“FBS”).
(§5) In this example, resting cultures of isolated macrophages are then infected with a recombinant adenovirus containing the luciferase gene which is transcribed under the control of a specific cis-element. In this example, four recombinant adenovirus constructs are used to infect four separate cultures of macrophages, each construct containing one of four cis-elements: CRE, AP-1, NFκB, and ISRE. The macrophages are infected at a MOI of 100 per cell. […] At 24 hours post stimulation, cells are harvested and luciferase activity is measured by luminometer. […]

CRE cis-element = assay: as above; conditions: LPS 1 μg/ml, 24 hours post stimulation
Description: as §1, §4, §5

For lipopolysaccharide [LPS], the “stimulation of the AP-1 cis-element (luciferase activity)” value (AP-1 cis-element [1]) was “significant stimulation”, the “stimulation of the NFκB cis-element (luciferase activity)” value (NFκB cis-element) was “significant stimulation” and the “stimulation of the ISRE cis-element (luciferase activity)” value (ISRE cis-element) was “significant stimulation”. The “activation of the AP-1 cis-element (luciferase activity)” value (AP-1 cis-element [2]) was “significant stimulated activation” and the “activation of the CRE cis-element (luciferase activity)” value (CRE cis-element) was “significant stimulated activation”.
